The text below walks through data of ChEMBL document CHEMBL1201862, “PubChem BioAssay data set” (2004).

Test [1] deals with Photoreceptor-specific nuclear receptor (Homo sapiens, UniProt Q9Y5X4). Description: ligands suppressing NR2E3 nuclear receptor activity – biochemical, TR-FRET, dose response (AID 463256). Type of test: functional.
Test [2] addresses Peroxisome proliferator-activated receptor gamma/Nuclear receptor corepressor 2 (Homo sapiens, UniProt P37231+Q9Y618). Description: Counterscreen for NR2E3 inverse agonists: TR-FRET-based biochemical high throughput dose response assay to identify inverse agonists of the interaction between peroxisome proliferator-activated receptor gamma (PPARg) and nuclear receptor co-repressor 2 (NCOR2). The format is functional.

In a further test the target is Estrogen receptor beta (Homo sapiens, UniProt Q92731). Description: blockers of SRC-3 recruitment to ERβ – biochemical, ELISA, streptavidin-HRP readout, orthogonal assay, confirmation (AID 1060).
In test [3] the target is T1, Bcl-2-related protein A1 (Mus musculus, UniProt Q07440).
T1 sequence (Q07440 whole entry): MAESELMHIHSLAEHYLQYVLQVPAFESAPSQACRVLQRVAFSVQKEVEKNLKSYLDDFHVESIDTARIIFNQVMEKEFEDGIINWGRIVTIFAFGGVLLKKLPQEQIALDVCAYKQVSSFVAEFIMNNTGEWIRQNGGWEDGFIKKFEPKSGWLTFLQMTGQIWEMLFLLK
Description: Bfl-1 binding inhibitors, SAR follow-up, biochemical, fluorescence polarization (AID 1070).

Test [4] addresses T1, Bcl-2-related protein A1. Description: displacement of Bid BH3 peptide from Bfl-1 – biochemical, fluorescence polarization, FITC-Bid, mouse, primary screen (AID 432).
Test [5] has as its target Glyceraldehyde-3-phosphate dehydrogenase (Homo sapiens, UniProt P04406).
Test [6] in a line: viability of PTEN-deleted HCT116 cells – cell-based, HCT116 PTEN knockout, dose response (AID 1047).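 Further: HCT116 colon tumor cells with PTEN knocked out; cells exposed to compound for 60 hours before readout; potency for loss of cell viability measured by luminescence.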 The format is functional.
Test [7] in a line: viability of HCT116 lacking mutant beta-catenin – cell-based, human colon tumor, dose response (AID 1045).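 Further: HCT116 colon tumor cells with beta catenin knocked out; cells exposed to compound for 60 hours.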 The format is functional.
In test [8] the target is T1, Bcl-2-related protein A1. Description: small-molecule antagonists of Bfl-1/BH3 interaction – biochemical, TR-FRET, mouse Bfl-1, confirmation (AID 621).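 Further: TR-FRET binding of GST-Bfl-1 to FITC-labelled Bid peptide via terbium antibody.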
Test [9] is described as follows: NIH3T3 cell viability loss – ATP luminescence, mouse fibroblasts, counter-screen, dose response (AID 2010).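 Further: cells exposed to compound for about 90 hours before reading.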 Type of test: functional, cell-based.
Test [10] in a line: reduction of Shn3 3'UTR-driven luciferase in osteoblasts – cell-based, Clone20 osteoblasts, firefly luciferase, cherry-picked, dose response (AID 624132).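 Further: firefly luciferase luminescence from reporter carrying the Shn3 3'UTR in osteoblasts.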 The format is functional.
Test [11] is described as follows: non-specific 3'UTR reporter inhibition in Clone20-Shn3RL – cell-based, Renilla luciferase, cherry-picked, counter-screen for Shn3 inhibitor project, dose response (AID 624133). Type of test: functional.
Test [12] is described as follows: Trypanosoma cruzi growth suppression in host cells – NIH3T3 host cells, beta-gal luminescence, confirmation (AID 2044).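 Further: intracellular parasites grown in NIH/3T3 mouse fibroblasts as host cells; luminescent beta-galactosidase reporter signal from transgenic T. cruzi replicating inside host cells; inhibitors lower the luminescence signal.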 Type of test: functional, cell-based.
A short description of test [13]: loss of viability in HepG2 cells – cell-based, CellTiter-Glo, cherry-picked, cytotoxicity control for Shn3 inhibitor project, dose response (AID 624134). Type of test: functional.
Another test concerns H4. Description: Luminescence Cell-Based Dose Response HTS to Identify Activators of 5'UTR Stem-Loop Driven Prion Protein mRNA Translation in H4 Neuroglioblastoma Cells. [Related pubchem assays: 1829 (Project Summary), 1814 (Primary HTS)]. Type of test: functional. Particulars: Homo sapiens.
A short description of test [14]: Luminescence Cell-Based Dose Confirmation to Identify Activators of 5'UTR Stem-Loop Driven Alpha-Synuclein mRNA Translation in H4 Neuroglioblastoma Cells. [Related pubchem assays: 1829 (Project Summary), 1814 (Primary HTS)]. The format is functional.
Test [15] can be described thus: Luminescence Cell-Based Dose Response to Identify Activators of 5'UTR Stem-Loop Driven Prion Protein mRNA Translation in H4-C Neuroglioblastoma Cells. [Related pubchem assays: 1829 (Project Summary), 1814 (Primary HTS)]. The format is functional.
Test [16] is described as follows: Luminescence Cell-Based Dose Response HTS to Identify Activators of Luciferase Translation or Activity in H4 […] Cells. [Related pubchem assays: 1829 (Project Summary), 1814 (Primary HTS)]. Type of test: functional.
The nature of test [17]: Luminescence Cell-Based Dose Response to Identify Activators of Luciferase Translation or Activity in H4-C Neuroglioblastoma Cells. [Related pubchem assays: 1829 (Project Summary), 1814 (Primary HTS)]. The format is functional.
The nature of test [18]: M. tuberculosis H37Rv growth inhibitors, H37Rv strain (AID 1626). Type of test: functional.

Several values for one entry are separate records, joined by “and”; a condition that tells them apart may be missing. Equal values may be shown once. Activity calls are given as the source filed them.

Peroxisome proliferator-activated receptor gamma/Nuclear receptor corepressor 2, sequence (P37231 whole entry): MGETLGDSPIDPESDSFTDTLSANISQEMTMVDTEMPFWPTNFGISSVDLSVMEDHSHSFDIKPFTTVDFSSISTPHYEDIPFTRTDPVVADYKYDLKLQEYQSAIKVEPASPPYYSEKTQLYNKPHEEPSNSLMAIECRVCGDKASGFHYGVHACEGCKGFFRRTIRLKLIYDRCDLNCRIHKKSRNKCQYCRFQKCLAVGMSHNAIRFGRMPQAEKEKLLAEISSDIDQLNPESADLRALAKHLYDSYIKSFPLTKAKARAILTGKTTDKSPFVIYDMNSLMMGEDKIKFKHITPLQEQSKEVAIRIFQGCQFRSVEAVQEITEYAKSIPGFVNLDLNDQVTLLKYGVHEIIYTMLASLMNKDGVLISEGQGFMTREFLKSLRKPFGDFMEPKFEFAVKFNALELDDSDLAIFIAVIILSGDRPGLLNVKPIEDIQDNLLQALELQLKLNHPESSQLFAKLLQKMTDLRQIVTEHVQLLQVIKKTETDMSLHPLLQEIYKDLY
Peroxisome proliferator-activated receptor gamma/Nuclear receptor corepressor 2, sequence (Q9Y618 whole entry): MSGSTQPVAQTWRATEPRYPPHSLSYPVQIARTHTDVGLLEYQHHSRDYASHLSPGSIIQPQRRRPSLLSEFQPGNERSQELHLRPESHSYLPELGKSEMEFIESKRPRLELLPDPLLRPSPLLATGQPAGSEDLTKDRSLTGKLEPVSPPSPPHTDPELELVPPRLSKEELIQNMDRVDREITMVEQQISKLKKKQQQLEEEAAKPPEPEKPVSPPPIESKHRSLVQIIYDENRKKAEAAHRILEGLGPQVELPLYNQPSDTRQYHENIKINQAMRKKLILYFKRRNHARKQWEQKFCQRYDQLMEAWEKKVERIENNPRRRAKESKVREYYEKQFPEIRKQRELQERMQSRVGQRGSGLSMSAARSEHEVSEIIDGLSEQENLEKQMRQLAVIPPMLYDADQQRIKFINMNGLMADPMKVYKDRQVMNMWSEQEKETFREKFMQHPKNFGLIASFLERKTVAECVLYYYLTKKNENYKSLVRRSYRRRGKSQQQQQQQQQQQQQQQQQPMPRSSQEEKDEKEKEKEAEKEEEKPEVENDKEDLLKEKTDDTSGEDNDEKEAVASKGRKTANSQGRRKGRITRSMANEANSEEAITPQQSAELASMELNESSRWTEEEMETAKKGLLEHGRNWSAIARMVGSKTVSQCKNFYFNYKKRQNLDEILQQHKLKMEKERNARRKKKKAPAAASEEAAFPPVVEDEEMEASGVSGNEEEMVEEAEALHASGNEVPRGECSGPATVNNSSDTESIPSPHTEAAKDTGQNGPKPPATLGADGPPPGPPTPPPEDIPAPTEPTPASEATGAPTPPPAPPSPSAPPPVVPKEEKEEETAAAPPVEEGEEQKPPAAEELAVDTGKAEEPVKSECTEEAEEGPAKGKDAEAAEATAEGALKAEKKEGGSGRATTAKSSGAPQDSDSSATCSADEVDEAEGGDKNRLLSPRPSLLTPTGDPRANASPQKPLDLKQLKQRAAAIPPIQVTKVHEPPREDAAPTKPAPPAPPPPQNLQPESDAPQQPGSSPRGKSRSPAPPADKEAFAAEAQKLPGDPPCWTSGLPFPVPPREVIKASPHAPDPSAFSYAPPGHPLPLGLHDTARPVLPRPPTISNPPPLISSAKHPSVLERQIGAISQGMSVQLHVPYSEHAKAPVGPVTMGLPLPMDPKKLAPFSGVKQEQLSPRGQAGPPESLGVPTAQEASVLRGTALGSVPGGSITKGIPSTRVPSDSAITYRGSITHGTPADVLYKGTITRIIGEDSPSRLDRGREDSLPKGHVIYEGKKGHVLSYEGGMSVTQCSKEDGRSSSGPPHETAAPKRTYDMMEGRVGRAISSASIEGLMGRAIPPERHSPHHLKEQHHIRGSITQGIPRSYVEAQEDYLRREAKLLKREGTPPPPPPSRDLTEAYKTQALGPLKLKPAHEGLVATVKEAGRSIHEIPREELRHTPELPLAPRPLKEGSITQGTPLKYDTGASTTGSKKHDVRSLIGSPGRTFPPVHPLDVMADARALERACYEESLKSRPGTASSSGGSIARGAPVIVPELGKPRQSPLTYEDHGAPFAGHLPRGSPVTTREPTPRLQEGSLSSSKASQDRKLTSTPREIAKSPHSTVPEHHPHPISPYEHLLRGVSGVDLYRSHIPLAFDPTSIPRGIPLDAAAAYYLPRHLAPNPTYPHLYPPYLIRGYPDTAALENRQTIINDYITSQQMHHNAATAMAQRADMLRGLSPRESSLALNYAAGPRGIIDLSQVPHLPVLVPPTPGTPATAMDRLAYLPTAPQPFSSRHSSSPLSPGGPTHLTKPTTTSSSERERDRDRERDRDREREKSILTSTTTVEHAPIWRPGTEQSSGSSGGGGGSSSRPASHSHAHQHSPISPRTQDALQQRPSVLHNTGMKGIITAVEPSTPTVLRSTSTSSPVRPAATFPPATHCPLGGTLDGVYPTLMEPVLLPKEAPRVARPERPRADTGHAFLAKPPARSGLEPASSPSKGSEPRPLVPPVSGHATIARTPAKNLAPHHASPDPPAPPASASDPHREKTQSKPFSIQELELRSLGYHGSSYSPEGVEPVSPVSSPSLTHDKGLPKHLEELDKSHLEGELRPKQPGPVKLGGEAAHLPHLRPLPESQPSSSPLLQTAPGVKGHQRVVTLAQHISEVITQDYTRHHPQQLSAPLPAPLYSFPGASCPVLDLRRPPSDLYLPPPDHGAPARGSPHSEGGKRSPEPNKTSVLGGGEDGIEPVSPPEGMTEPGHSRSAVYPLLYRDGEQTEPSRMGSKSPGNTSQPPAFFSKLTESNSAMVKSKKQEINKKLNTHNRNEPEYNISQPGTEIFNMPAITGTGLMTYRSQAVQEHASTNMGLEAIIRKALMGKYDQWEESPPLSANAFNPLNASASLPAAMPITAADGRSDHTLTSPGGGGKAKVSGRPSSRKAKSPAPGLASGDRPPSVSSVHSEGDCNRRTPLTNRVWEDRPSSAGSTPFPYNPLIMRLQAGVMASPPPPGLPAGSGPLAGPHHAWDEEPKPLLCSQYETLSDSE
Photoreceptor-specific nuclear receptor, sequence (Q9Y5X4 whole entry): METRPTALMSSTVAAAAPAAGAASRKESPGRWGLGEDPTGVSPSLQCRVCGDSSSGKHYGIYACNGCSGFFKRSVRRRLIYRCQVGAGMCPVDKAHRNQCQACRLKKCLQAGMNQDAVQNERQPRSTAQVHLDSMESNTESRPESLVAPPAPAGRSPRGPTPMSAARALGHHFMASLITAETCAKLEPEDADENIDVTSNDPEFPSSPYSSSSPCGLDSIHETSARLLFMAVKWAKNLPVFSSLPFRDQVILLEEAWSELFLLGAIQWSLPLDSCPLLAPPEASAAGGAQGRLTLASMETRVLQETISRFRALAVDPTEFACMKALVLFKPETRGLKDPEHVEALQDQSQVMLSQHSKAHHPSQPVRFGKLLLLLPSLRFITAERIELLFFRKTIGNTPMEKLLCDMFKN
Glyceraldehyde-3-phosphate dehydrogenase, sequence (P04406 whole entry): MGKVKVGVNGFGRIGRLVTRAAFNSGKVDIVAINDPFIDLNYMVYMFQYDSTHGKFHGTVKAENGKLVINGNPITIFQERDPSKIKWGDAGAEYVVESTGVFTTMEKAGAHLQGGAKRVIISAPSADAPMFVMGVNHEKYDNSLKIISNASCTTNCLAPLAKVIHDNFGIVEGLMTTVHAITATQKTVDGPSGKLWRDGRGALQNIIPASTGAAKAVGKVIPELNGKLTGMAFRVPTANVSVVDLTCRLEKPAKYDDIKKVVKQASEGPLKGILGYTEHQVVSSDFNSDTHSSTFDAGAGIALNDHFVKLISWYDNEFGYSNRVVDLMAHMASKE
Estrogen receptor beta, sequence (Q92731 whole entry): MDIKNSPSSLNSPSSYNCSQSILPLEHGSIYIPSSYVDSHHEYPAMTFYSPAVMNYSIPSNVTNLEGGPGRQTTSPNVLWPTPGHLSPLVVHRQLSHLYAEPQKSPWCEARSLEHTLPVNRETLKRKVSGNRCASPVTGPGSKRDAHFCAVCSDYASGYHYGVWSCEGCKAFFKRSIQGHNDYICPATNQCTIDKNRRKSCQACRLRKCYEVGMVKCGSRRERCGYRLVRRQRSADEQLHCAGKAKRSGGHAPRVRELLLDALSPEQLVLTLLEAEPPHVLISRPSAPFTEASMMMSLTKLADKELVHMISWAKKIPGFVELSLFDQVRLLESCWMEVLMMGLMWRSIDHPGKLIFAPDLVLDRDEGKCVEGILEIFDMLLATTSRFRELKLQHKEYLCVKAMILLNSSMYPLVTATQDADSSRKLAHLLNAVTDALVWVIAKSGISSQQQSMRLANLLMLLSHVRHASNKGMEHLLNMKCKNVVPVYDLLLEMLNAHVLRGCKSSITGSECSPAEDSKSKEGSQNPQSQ

`CC(=O)Nc1ccc(NC(=O)CNC(=O)c2sc3ccccc3c2Cl)cc1`: the IC50 in test [1] was 15.5 µM (not active); in [2], 11.1 µM (not active).

Turning to `CC1CCN(Cc2ccc(NC(=O)C3CCN(c4nnc(-n5cccc5)s4)CC3)cc2)CC1`, the IC50 was 1.1 µM (not active) against Estrogen receptor beta; 20.8 µM (active) on Bcl-2-related protein A1 [3]; > 100 µM (not active) at Bcl-2-related protein A1 [4]; > 100 µM (not active) in [5]; 35.1 µM (active) and > 100 µM (not active) at Bcl-2-related protein A1 [8]. Moreover, the results for the EC50 in test [6] and in [7] were 21.4 µM (active) and 61.6 µM (active), respectively.

In the case of `c1ccc(Nc2nc(NCC3CCCO3)c3ccccc3n2)cc1` (stereo unspecified), the EC50 is > 60 µM (not active) in test [9], 0.131 µM (active) in “cells” and < 0.1 µM (active) in [12]. The figures for the AC50 in test [10], in test [11] and in test [13] were 21.7 µM (active), 4.84 µM (active) and 7.09 µM (active), respectively.

Take `Cc1cc(C(=O)ON=C(N)c2ccc(C(C)(C)C)cc2)no1`: the EC50 was 110 µM (active) in the test with H4; 0.737 µM (active) in test [14]; 1.78 µM (active) in test [15]; < 0.1 µM (inconclusive) in test [16]; 0.442 µM (active) in [17].

Regarding `Nc1ccc(N=Nc2ccccc2)cc1`, the IC50 in [18] is > 100 µM (active).
